Read-outs that look alike come from different tables or passages of the source. Each block holds one compound with its values, some of them ahead of it.
Tests used:
[1] = target: T1, mouse 5-HT3A serotonin receptors (Mus musculus, UniProt P23979); test: 5-HT3A CNiFER FRET Flex assay; type: cell-based; conditions: for mode of antagonism / Schild Slope: vs 5-HT; for Schild Slope: in aCSF
T1 sequence (P23979 24-489): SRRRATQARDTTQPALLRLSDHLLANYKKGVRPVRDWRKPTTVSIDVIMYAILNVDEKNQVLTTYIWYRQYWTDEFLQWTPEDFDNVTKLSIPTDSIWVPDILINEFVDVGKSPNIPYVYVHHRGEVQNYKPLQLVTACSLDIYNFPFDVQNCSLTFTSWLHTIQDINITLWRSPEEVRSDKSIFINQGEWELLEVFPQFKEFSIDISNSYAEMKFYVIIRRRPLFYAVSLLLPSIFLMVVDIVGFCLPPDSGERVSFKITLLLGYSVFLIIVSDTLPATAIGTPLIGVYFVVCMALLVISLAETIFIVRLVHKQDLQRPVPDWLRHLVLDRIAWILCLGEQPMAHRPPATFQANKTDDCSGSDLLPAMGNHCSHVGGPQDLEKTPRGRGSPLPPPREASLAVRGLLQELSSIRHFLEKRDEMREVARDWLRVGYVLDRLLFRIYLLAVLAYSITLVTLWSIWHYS
Experimental: Cells were cultured in 10 cm plates with DMEM (Mediatech, Manassas, VA) supplemented with 10% FBS (Gemini Bio-Products, West Sacramento, CA; Atlanta Biologicals, Lawrenceville, GA) and 1% Glutamine (Invitrogen), and incubated at 37°C with 10% CO2. Cells were selected at ∼70% confluency and plated the day before using 100 µl volumes per well into black, transparent flat-bottom, TC treated 96-well plates (Thermo, Waltham, MA; E&K, Greiner Campbell, CA). Plates were removed from the incubator the next day and the media was replaced with 100 µl of artificial cerebral spinal fluid (aCSF) [containing 121 mM NaCl, 2.4 mM Ca^2+, 1.3 mM Mg^2+, 5 mM KCl, 26 mM NaHCO3, 1.2 mM Na2HPO4, 10 mM glucose, 5 mM Hepes Na^+, pH 7.4]. For all assays performed on α7-nAChR CNiFERs 10 µM of the PAM, PNU-120596 (Tocris, Ellisville, MO), was prepared in aCSF. In the case of antagonist measurements, antagonists, at 1.5 times the final desired concentration, were prepared in aCSF. For non-CNiFER cell lines, Blue Membrane Potential dye (Molecular Devices, Sunnyvale, CA) was prepared in aCSF and diluted 2 fold the recommended dilution. Plates were incubated for at least 30 min at 37°C and 10% CO2 for any assay that included antagonist, dye, or PAM modification to the aCSF. Following incubation, plates were removed and placed into the Molecular Devices FlexStation III instrument and run at 37°C. Injection rates varied between […], and 50 µl of the specified agonist prepared at 3x final concentration in the aforementioned aCSF solution was injected after 30 s of baseline measurement. […] All wells were replicated (two or three times) in the same plate. Mean peak FRET ratios calculated from replicates were exported and plotted against agonist concentrations using Graphpad Prism 4 (Carlsbad, CA). A sigmoidal concentration-response (variable slope) regression of the mean peak FRET ratios was fit to generate a concentration-response curve and obtain an EC50 value.
To measure potencies of competitive antagonists, three concentration-response curves with different antagonist concentrations were compared to a control curve (without antagonist). Mean FRET responses generated concentration response curves, and antagonist dependent shifts in EC50 values were used to calculate dose ratios (DR), as a concentration ratio of EC50'/EC50 for the specified agonist (where EC50' is in the presence of the antagonist at the specified concentration). DRs were used to produce a Schild regression plot for analysis of competitive antagonism and generate a Ka value. Analysis consisted of potting Log (DR-1) against –Log [Antagonist]. The Schild Ka value for competitive antagonists was calculated from the x-intercept at y = 0, as the –Log (Ka), [38]. All errors reported are arithmetic standard deviations unless otherwise noted.

α7-nAChR [2] = conditions: cited from earlier work
α7/5-HT3A = conditions: cited from earlier work; for EC50: Ca2+ dye (Fluo-3-AM) on HEK293 cells expressing human receptors, read-out: EC50, α7/5-HT3A (non-CNiFER)
[3] = target: human α7 nicotinic acetylcholine receptors (Homo sapiens, UniProt P36544); test: cell-based; type: cell-based
human α7 nicotinic acetylcholine receptors, sequence (P36544 23-502): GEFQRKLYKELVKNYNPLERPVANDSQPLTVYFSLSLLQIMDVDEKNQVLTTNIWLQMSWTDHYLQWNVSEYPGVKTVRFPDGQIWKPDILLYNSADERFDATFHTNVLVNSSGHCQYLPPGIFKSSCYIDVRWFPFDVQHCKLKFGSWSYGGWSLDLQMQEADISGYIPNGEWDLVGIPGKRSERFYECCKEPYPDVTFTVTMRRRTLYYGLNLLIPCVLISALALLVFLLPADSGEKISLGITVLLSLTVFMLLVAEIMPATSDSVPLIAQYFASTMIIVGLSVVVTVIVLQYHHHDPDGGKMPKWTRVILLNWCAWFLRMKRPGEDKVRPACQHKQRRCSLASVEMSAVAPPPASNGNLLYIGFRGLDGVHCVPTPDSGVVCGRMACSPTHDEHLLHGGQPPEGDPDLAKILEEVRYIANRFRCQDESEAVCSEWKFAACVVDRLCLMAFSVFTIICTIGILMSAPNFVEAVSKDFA

α7-nAChR [4] = target: α7-nAChR (Homo sapiens, UniProt P36544); conditions: read-out: EC50, α7-nAChR (non-CNiFER); potential-sensitive dye, human receptors
α7-nAChR (Homo sapiens, UniProt P36544), sequence (P36544 23-502): as above

Compound: NCCc1c[nH]c2ccc(O)cc12 [5-HT, 5-Hydroxytryptamine]
- Hill coefficient ([1]; 5-HT3A CNiFER concentration-response (Figure 6A)): 2.6

Compound: CCN1C[C@]2(COC(=O)c3ccccc3N3C(=O)C[C@H](C)C3=O)CC[C@H](OC)[C@@]34[C@@H]5C[C@H]6[C@H](OC)[C@@H]5[C@](O)(C[C@@H]6OC)[C@@](O)([C@@H](OC)[C@H]23)[C@@H]14 [MLA, methyllycaconitine]
- half time for dissociation (α7-nAChR [2]): 2.3 min
- IC50 (α7/5-HT3A; read-out: IC50 (non-CNiFER)): 36 ± 13 nM
- Kd [3]: 3.2 nM
- Schild Slope [3]: −1.2±0.3
- mode of antagonism (Schild analysis) [3]: competitively

Compound: (−)-Nicotine
- EC50 (α7/5-HT3A): 19100 nM

Compound: Clc1ccc(C2CC3CCC2N3)cn1 (racemic) [(±)-Epibatidine, (±)-epibatidine]
- EC50 (α7/5-HT3A): 180 ± 20 nM
- EC50 (α7-nAChR [4]): 17 ± 2.6 nM
- EC50 ([3]; read-out: EC50, α7-nAChR CNiFER): 28 nM
- EC50 ([3]; read-out: EC50 of agonist curve): 3.6 nM

Results, then the compound that gave them:

- mode of antagonism [1]: greater non-competitive component
Compound: CN1[C@@H]2CC[C@H]1C[C@@H](OC(=O)c1c[nH]c3ccccc13)C2 [tropisetron]

- Kd ([1]; read-out: CNiFER Ka (Schild)): 1.6 ± 0.9 nM
- mode of antagonism [1]: near competitive block
- Schild Slope [1]: −1.3±0.04
- Schild Slope ([1]; listed as ondansetron): -1.3±0.04
Compound: Cc1nccn1CC1CCc2c(c3ccccc3n2C)C1=O (stereo not shown) [Ondansetron, ondansetron]

Reference: article PMC3030600, “Characterizing Ligand-Gated Ion Channel Receptors with Genetically Encoded Ca^++ Sensors” (PLoS ONE, 2011)
